How the values were obtained:
Assay in all cases: biochemical
Type in all cases: binding
panel of 442 kinases [1] = target: T1, panel of 442 kinases (Homo sapiens, UniProt O60331); conditions: kinase PIP5K1C; for remaining activity at 1 µM: read-out: % of control at 1 µM
T1 construct: purchased Ambit Biosciences (scanMAXX KINOMEscan)

panel of 442 kinases [2] = target: T2, panel of 442 kinases (Homo sapiens, UniProt P22694); conditions: kinase PKAC-beta; for remaining activity at 1 µM: read-out: PKAC-beta (% of control at 1 µM)
T2 construct: purchased Ambit Biosciences (scanMAXX KINOMEscan)

panel of 442 kinases [3] = target: T3, panel of 442 kinases (Homo sapiens, UniProt Q15831); conditions: kinase LKB1; for remaining activity at 1 µM: read-out: % of control at 1 µM
T3 construct: purchased Ambit Biosciences (scanMAXX KINOMEscan)
T3 sequence (Q15831 1-433): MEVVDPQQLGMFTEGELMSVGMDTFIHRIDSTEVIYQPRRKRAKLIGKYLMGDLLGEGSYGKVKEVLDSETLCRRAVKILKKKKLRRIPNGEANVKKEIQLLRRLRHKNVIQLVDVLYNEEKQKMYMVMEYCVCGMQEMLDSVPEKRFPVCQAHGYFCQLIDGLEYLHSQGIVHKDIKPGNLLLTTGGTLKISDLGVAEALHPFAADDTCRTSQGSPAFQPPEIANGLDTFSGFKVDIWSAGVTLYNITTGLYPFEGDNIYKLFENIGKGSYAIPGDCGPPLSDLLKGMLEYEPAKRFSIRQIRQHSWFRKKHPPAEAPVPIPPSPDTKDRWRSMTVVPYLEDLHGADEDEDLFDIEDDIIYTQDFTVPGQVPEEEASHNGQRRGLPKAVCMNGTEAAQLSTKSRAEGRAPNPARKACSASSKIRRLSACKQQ

panel of 442 kinases [4] = target: T4, panel of 442 kinases (Homo sapiens, UniProt O14976); conditions: kinase GAK; for remaining activity at 1 µM: read-out: % of control at 1 µM
T4 construct: purchased Ambit Biosciences (scanMAXX KINOMEscan)
T4 sequence (O14976 1-1311): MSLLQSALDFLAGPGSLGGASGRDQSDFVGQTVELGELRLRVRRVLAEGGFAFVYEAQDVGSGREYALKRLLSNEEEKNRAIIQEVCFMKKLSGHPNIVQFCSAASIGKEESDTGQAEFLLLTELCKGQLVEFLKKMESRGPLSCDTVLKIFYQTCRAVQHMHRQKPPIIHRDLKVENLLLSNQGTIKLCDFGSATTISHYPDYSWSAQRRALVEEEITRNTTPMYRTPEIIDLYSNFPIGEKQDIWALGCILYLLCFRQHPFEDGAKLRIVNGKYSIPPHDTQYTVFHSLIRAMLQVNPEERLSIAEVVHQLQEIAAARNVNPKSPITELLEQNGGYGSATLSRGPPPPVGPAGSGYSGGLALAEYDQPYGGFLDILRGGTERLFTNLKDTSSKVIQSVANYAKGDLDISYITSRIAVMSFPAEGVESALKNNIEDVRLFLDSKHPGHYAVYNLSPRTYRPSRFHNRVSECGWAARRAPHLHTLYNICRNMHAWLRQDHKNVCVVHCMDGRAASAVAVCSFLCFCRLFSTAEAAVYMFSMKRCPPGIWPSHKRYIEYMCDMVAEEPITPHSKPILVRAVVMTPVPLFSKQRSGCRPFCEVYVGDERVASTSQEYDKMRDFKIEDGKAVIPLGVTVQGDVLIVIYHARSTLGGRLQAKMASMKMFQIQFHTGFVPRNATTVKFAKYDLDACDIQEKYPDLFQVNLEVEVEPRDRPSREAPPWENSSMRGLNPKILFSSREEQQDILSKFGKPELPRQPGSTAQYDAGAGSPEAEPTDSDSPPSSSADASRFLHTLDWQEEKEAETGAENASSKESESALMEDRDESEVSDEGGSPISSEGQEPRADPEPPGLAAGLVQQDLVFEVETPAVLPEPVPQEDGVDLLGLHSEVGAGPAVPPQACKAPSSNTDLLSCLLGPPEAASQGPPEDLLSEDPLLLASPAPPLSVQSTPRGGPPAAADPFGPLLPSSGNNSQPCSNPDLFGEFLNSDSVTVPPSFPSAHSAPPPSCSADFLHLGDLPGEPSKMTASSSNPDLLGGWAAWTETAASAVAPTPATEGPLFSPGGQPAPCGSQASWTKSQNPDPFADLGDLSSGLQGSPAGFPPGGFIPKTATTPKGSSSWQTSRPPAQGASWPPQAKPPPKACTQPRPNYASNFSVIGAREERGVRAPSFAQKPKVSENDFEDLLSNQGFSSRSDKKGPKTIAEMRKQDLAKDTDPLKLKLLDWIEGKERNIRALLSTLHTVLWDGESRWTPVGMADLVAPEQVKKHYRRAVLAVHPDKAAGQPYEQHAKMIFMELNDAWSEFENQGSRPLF

panel of 442 kinases [5] = target: T5, panel of 442 kinases (Homo sapiens, UniProt P54756); conditions: EPHA5; for remaining activity at 1 µM: read-out: % of control at 1 µM
T5 construct: purchased Ambit Biosciences (scanMAXX KINOMEscan)

panel of 442 kinases [6] = target: T6, panel of 442 kinases (Homo sapiens, UniProt P20794); conditions: kinase MAK; for remaining activity at 1 µM: read-out: % of control at 1 µM
T6 construct: purchased Ambit Biosciences (scanMAXX KINOMEscan)
T6 sequence (P20794 1-623): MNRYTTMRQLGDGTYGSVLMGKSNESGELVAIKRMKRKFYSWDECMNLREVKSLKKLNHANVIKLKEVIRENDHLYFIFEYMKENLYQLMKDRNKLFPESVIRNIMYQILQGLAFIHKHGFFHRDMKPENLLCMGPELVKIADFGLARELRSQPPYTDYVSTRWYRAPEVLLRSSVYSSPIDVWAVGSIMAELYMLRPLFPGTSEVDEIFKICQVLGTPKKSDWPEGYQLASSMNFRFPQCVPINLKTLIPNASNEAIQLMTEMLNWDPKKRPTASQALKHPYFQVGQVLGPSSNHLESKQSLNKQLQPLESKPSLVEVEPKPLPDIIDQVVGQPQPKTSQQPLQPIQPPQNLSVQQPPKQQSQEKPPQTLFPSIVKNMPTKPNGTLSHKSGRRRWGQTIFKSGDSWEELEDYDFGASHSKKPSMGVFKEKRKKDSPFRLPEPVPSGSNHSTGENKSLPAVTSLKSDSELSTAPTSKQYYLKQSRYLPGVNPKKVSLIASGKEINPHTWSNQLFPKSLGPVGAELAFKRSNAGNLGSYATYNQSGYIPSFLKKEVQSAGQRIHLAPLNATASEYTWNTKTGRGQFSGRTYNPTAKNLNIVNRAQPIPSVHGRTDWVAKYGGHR

[7] = 10 µM, read-out: % of control at 10 µM

T5 sequence (P54756 25-1037): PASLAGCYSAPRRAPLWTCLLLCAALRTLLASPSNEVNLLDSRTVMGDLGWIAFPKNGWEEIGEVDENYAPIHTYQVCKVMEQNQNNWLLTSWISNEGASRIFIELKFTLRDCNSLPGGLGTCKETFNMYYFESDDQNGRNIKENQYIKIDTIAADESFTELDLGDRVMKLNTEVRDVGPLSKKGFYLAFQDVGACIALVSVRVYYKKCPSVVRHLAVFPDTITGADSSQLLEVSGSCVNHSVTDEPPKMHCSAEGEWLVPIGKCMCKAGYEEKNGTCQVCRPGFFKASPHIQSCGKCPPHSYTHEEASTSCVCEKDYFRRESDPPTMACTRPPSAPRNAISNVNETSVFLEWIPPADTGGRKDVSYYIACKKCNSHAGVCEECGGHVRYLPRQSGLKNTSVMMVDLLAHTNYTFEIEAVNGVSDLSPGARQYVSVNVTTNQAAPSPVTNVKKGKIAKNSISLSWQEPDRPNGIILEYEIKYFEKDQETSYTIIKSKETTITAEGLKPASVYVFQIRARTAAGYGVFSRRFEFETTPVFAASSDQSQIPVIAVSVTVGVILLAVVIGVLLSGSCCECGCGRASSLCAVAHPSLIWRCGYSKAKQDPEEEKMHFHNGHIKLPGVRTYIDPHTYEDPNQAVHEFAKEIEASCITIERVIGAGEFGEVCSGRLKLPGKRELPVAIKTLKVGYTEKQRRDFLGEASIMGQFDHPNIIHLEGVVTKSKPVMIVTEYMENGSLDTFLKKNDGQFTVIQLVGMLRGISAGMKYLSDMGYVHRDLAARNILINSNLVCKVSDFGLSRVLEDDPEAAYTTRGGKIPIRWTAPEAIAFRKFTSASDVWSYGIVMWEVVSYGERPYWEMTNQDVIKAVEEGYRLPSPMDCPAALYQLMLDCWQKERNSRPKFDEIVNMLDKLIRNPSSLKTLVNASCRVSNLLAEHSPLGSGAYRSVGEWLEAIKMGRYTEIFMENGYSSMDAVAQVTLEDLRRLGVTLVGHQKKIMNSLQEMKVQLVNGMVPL
T1 sequence (O60331 whole entry): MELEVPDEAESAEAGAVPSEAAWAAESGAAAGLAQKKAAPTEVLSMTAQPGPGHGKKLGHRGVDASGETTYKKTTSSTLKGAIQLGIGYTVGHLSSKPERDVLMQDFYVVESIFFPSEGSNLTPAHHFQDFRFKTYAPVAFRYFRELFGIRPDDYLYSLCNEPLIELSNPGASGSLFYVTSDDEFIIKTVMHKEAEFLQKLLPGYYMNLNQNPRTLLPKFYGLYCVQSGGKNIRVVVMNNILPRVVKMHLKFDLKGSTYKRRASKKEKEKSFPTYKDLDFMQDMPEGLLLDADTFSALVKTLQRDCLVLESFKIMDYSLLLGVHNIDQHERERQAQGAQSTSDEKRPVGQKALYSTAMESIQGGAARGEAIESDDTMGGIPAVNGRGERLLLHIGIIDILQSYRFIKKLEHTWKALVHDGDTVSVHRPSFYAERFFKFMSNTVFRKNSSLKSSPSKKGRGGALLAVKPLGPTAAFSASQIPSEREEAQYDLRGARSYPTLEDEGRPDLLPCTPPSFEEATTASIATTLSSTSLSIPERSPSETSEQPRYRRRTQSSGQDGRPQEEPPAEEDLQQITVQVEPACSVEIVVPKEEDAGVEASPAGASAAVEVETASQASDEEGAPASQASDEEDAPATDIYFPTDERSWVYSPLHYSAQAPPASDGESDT

Row | SMILES | remaining activity at 1 µM (panel of 442 kinases [1]) [%] | remaining activity at 10 µM (panel of 442 kinases [1]; [7]) [%] | remaining activity at 1 µM (panel of 442 kinases [2]) [%] | remaining activity at 10 µM (panel of 442 kinases [2]; 10 µM, read-out: PKAC-beta (% of control at 10 µM)) [%] | remaining activity at 1 µM (panel of 442 kinases [3]) [%] | remaining activity at 10 µM (panel of 442 kinases [3]; [7]) [%] | remaining activity at 1 µM (panel of 442 kinases [4]) [%] | remaining activity at 10 µM (panel of 442 kinases [4]; [7]) [%] | remaining activity at 1 µM (panel of 442 kinases [5]) [%] | remaining activity at 10 µM (panel of 442 kinases [5]; [7]) [%] | remaining activity at 1 µM (panel of 442 kinases [6]) [%] | remaining activity at 10 µM (panel of 442 kinases [6]; [7]) [%]
1 | Nc1cc(C(F)(F)F)c(-c2cc(N3CCOCC3)nc(N3CCOCC3)n2)cn1 [Buparlisib] | 55 | 63 | 79 | 100 | 100 | 99 | 100 | 100 | 100 | 100 | 98 | 89
2 | Cn1c(=O)n(-c2ccc(C(C)(C)C#N)cc2)c2c3cc(-c4cnc5ccccc5c4)ccc3ncc21 [Dactolisib, 2-methyl-2-[4-(3-methyl-2-oxo-8-quinolin-3-yl-2,3-dihydroimidazo[4,5-c]quinolin-1-yl)-phenyl] propionitrile] | 100 | – | 90 | – | 93 | – | 60 | – | – | – | 64 | –
3 | COc1ncc(-c2ccc3nccc(-c4ccnnc4)c3c2)cc1NS(=O)(=O)c1ccc(F)cc1F [Omipalisib] | 100 | – | 100 | – | 100 | – | 61 | – | 100 | – | 71 | –
4 | FC(F)c1nc2ccccc2n1-c1nc(N2CCOCC2)nc(N2CCOCC2)n1 [ZSTK474, 2-(difluoromethyl)-1-[4,6-di(4-morpholinyl)-1,3,5-triazin-2-yl]-1H-benzimidazole] | 100 | – | 100 | – | 100 | – | 78 | – | 100 | – | 87 | –

— publication PMC5564600 (Oncotarget, 2017)
